Reference: paper PMC6074028 (Organic & biomolecular chemistry, 2009)
Where two headings read alike, the source gives them in different places.

Columns and labels:
[1] = molecular target: T1, BaPanK (type-III pantothenate kinase from Bacillus anthracis) (Bacillus anthracis, UniProt Q81VX4); assay type: biochemical
[2] = molecular target: T1, BaPanK (type-III pantothenate kinase from Bacillus anthracis); assay type: biochemical; remark: listed apart in the source

T1 sequence (Q81VX4 whole entry, looked up): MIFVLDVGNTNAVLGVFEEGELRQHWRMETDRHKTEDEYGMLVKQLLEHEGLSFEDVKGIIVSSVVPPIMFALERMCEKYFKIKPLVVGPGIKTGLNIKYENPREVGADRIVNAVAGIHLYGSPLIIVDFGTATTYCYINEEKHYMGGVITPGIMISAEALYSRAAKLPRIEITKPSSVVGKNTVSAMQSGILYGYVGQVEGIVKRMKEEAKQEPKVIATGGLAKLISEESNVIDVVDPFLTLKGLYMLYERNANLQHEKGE

| SMILES | Km [1] | Km [2] |
| --- | --- | --- |
| CC(C)(CO)[C@@H](O)C(=O)NCCC(=O)O [pantothenate] | 275 µM | – |
| Nc1nc2c(ncn2[C@H]2C[C@H](O)[C@@H](COP(=O)(O)OP(=O)(O)OP(=O)(O)O)O2)c(=O)[nH]1 [dGTP] | – | 117 µM |
| Nc1ncnc2c1ncn2[C@@H]1O[C@H](COP(=O)(O)OP(=O)(O)OP(=O)(O)O)[C@@H](O)[C@H]1O [ATP] | – | 510 µM |
| Nc1ncnc2c1ncn2[C@H]1C[C@H](O)[C@@H](COP(=O)(O)OP(=O)(O)OP(=O)(O)O)O1 [dATP] | – | 138 µM |
| Cc1cn([C@H]2C[C@H](O)[C@@H](COP(=O)(O)OP(=O)(O)OP(=O)(O)O)O2)c(=O)[nH]c1=O [dTTP] | – | 723 µM |
